The values below come from patent US5061794A, “Cephalosporin derivatives, and antibacterial agents” (priority 1986, dated 1991).

Like-named read-outs stand apart in the source and are kept apart here.

For test [1], the system named is Ps. aeruginosa IF03445. Briefly: in vitro antibacterial activity, agar plate dilution method (MIC). Conditions: Pseudomonas aeruginosa, 16 h; Ps. aeruginosa IF03445; 10^6 CFU/ml; read-out: Minimum Inhibitory Concentration (MIC). Type of test: cell-based, Pseudomonas aeruginosa. The method in brief: (§1)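 Inoculum 10^6 CFU/ml; medium Mueller Hinton agar with graded antibiotic; 37° C./16 h; endpoint MIC (μg/ml).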

The test system of test [2] is Ps. aeruginosa AKR17. The test is described as above. In kind it is cell-based, Pseudomonas aeruginosa. Conditions: Pseudomonas aeruginosa, 16 h; Ps. aeruginosa AKR17; 10^6 CFU/ml; read-out: Minimum Inhibitory Concentration (MIC). The method in brief:
as §1

Test [3] relates to Ps. aeruginosa AK 109. The description is as above. In kind it is cell-based, Pseudomonas aeruginosa. Conditions: Pseudomonas aeruginosa, AK109, 16 h, Ps. aeruginosa AK 109; 10^6 CFU/ml; read-out: Minimum Inhibitory Concentration (MIC). An outline of the steps:
as §1

The subject of test [4] is E. coli CSH2 (RK1). Put plainly: microbe, parasite or virus in culture. The conditions noted are these: Escherichia coli, 16 h, read-out: Minimum Inhibitory Concentration (MIC), *E. coli CSH2 (RK1), lactamase-producing strain; 10^6 CFU/ml. In kind it is cell-based. An outline of the steps:
as §1

The test system of test [5] is E. coli CSH(RE45). Briefly: microbe, parasite or virus in culture. In kind it is cell-based. The conditions noted are these: Escherichia coli, 16 h, read-out: Minimum Inhibitory Concentration (MIC), *E. coli CSH(RE45), lactamase-producing strain; 10^6 CFU/ml. An outline of the steps:
as §1

For test [6], the system named is A. calcoaceticus No. 4. Put plainly: in vitro antibacterial activity, agar plate dilution method (MIC). Type of test: cell-based, Acinetobacter calcoaceticus. Conditions: Acinetobacter calcoaceticus, NO.4, 16 h, 10^6 CFU/ml. The method in brief: as §1
For test [7], the system named is M. morganii GN5407. The test is described as above. In kind it is cell-based. Conditions: Morganella morganii, GN5407, 16 h, read-out: Minimum Inhibitory Concentration (MIC), *M. morganii GN5407, lactamase-producing strain; 10^6 CFU/ml. The method in brief:
as §1

Test [8] has as its system S. aureus 209P NIHJ-JC1. The description is as above. Type of test: cell-based. Conditions: Staphylococcus aureus, 16 h. The method in brief: as §1
The test system of test [9] is K. pneumoniae PCI-602. The description is as above. In kind it is cell-based. The conditions noted are these: Klebsiella pneumoniae, PCI602, 16 h, 10^6 CFU/ml. The method in brief:
as §1

Test [10] deals with E. cloacae Nek 39. The description is as above. Type of test: cell-based. The conditions noted are these: Enterobacter cloacae, NEK39, 16 h, 10^6 CFU/ml. An outline of the steps:
as §1

Test [11] has as its system S. marcescens No. 16-2. Described as above. The conditions noted are these: Serratia marcescens, NO.162, 16 h, 10^6 CFU/ml. Type of test: cell-based. An outline of the steps: as §1
Test [12] concerns K. pneumoniae No. 42. The test is described as above. In kind it is cell-based. Conditions: Klebsiella pneumoniae, NO.42, 16 h, read-out: Minimum Inhibitory Concentration (MIC), *K. pneumoniae No. 42, lactamase-producing strain; 10^6 CFU/ml. The method in brief:
as §1

The subject of test [13] is P. vulgaris HX-19. The description is as above. Type of test: cell-based. The conditions noted are these: Proteus vulgaris, HX19, 16 h, P. vulgaris HX-19; 10^6 CFU/ml; read-out: Minimum Inhibitory Concentration (MIC). An outline of the steps: as §1
The subject of test [14] is E. coli NIHJ JC2. The description is as above. In kind it is cell-based. Conditions: Escherichia coli, NIHJJC2, 16 h, read-out: Minimum Inhibitory Concentration (MIC), E. coli NIHJ JC2, 10^6 CFU/ml, 37° C. An outline of the steps: as §1
The test system of test [15] is E. coli GN5482. The test is described as above. In kind it is cell-based. Conditions: Escherichia coli, GN5482, 16 h. An outline of the steps:
as §1

For test [16], the system named is E. cloacae 963. Described as above. Type of test: cell-based. The conditions noted are these: Enterobacter cloacae, 963, 16 h, read-out: Minimum Inhibitory Concentration (MIC), E. cloacae 963; 10^6 CFU/ml. The method in brief: as §1
The subject of test [17] is P. vulgaris No. 33. The test is described as above. Type of test: cell-based. Conditions: Proteus vulgaris, NO.33, 16 h, read-out: Minimum Inhibitory Concentration (MIC), *P. vulgaris No. 33, lactamase-producing strain; 10^6 CFU/ml. The method in brief:
as §1

Test [18] has as its system S. marcescens IAM 1184. The description is as above. Type of test: cell-based. Conditions: Serratia marcescens, IAM1184, 16 h, read-out: Minimum Inhibitory Concentration (MIC). The method in brief:
as §1

The test system of test [19] is K. oxytoca GN10650. Described as above. Type of test: cell-based. Conditions: Klebsiella oxytoca, 10^6 CFU/ml. The method in brief:
as §1

For test [20], the system named is Ps. cepacia 23. The description is as above. Type of test: cell-based, Pseudomonas cepacia. The conditions noted are these: Burkholderia cepacia, 23, 16 h, read-out: Minimum Inhibitory Concentration (MIC). The method in brief: as §1
Where [21] appears, read: read-out: Minimum Inhibitory Concentration (MIC).
The mark [22] stands for this setting: K. pneumoniae PCI-602, read-out: Minimum Inhibitory Concentration (MIC).
The mark [23] stands for this setting: read-out: Minimum Inhibitory Concentration (MIC), *E. cloacae Nek 39, lactamase-producing strain.
Where [24] appears, read: read-out: Minimum Inhibitory Concentration (MIC), *E. coli GN5482, lactamase-producing strain, 10^6 CFU/ml.
The mark [25] stands for this setting: GN10650, 16 h, read-out: Minimum Inhibitory Concentration (MIC), *K. oxytoca GN10650, lactamase-producing strain.
Where [26] appears, read: A. calcoaceticus No. 4, read-out: Minimum Inhibitory Concentration (MIC).
Setting [27] is: *S. marcescens No. 16-2, lactamase-producing strain, read-out: Minimum Inhibitory Concentration (MIC).

Consider `CO/N=C(\C(=O)N[C@@H]1C(=O)N2C(C(=O)O)=C(CSc3ncc(-c4ccccc4)o3)CS[C@H]12)c1csc(N)n1` [compound 21, sodium 7β-[2-(2-aminothiazol-4-yl)-2methoxyiminoacetamido]-3-(5-phenyloxazol-2-yl)thiomethyl-3-cephem-4-carboxylate, reference compound], for which the MIC is 50 µg/mL in [1]; more than 100 µg/mL in test [2]; 50 µg/mL in test [3]; 0.78 µg/mL in [4]; 1.56 µg/mL in test [5]; 12.5 µg/mL in test [6] (read-out: Minimum Inhibitory Concentration (MIC), A. calcoaceticus No. 4). The MIC in test [7] was 1.56 µg/mL; in test [8] (setting [21]) it was 0.39 µg/mL; in test [9] (setting [22]), 0.0125 µg/mL; in test [10] (setting [23]) it was 6.25 µg/mL; in [11] (read-out: Minimum Inhibitory Concentration (MIC), *S. marcescens No. 16-2, lactamase-producing strain), 6.25 µg/mL; in test [12], 3.12 µg/mL. Moreover, the MIC stood at 0.0125 µg/mL in test [13]; 1.56 µg/mL in test [14]; 0.78 µg/mL in test [15] (setting [24]); 3.12 µg/mL in test [16]; 0.78 µg/mL in test [17]; 0.78 µg/mL in [18]. The MIC in [19] (setting [25]) is 12.5 µg/mL; in test [20] it was 0.78 µg/mL.

For the compound `CC(C)(O/N=C(\C(=O)N[C@@H]1C(=O)N2C(C(=O)O)=C(CSc3ncc(-c4ccccc4)o3)CS[C@H]12)c1csc(N)n1)C(=O)O` [compound 22, disodium 7β-[2-(2-aminothiazol-4-yl)-2-(1-carboxylate-1-methylethoxyimino)acetamido]-3(5-phenyloxazol-2-yl)thiomethyl-3-cephem-4-carboxylate, reference compound], the MIC in test [1] is 50 µg/mL; in [2] it was more than 100 µg/mL; in test [3], 50 µg/mL; in [4], 3.12 µg/mL; in test [5] it was 3.12 µg/mL; in test [6] (setting [26]), more than 100 µg/mL. Besides, the MIC in [7] worked out at 6.25 µg/mL; in test [8] (read-out: Minimum Inhibitory Concentration (MIC), S. aureus 209P NIHJ-JC1, 10^6 CFU/ml, 37° C., 16 hours), 6.25 µg/mL; in test [9] (read-out: Minimum Inhibitory Concentration (MIC), K. pneumoniae PCI-602), 0.1 µg/mL; in test [10] (*E. cloacae Nek 39, lactamase-producing strain, read-out: Minimum Inhibitory Concentration (MIC)), 25 µg/mL; in test [11] (setting [27]) it was 25 µg/mL; in [12] it was 12.5 µg/mL. Also, the MIC is less than 0.006 µg/mL in test [13]; 12.5 µg/mL in test [14]; 3.12 µg/mL in [15] (setting [21]); 12.5 µg/mL in test [16]; 0.78 µg/mL in test [17]; 3.12 µg/mL in test [18]. In addition, the results for the MIC in test [19] (setting [25]) and in [20] were 6.25 µg/mL and 12.5 µg/mL, respectively.

Take `CO/N=C(\C(=O)N[C@@H]1C(=O)N2C(C(=O)O)=C(CSc3ncc(-c4ccc(O)cc4)o3)CS[C@H]12)c1csc(N)n1` [compound 23, sodium 7β-[2-(2-aminothiazol-4-yl)-2-methoxyiminoacetamido]-3-[5-(4-hydroxyphenyl)-oxazol-2-yl]thiomethyl-3-cephem-4-carboxylate, reference compound]: the MIC in test [1] is 50 µg/mL; in test [2], more than 100 µg/mL; in test [3], 50 µg/mL; in [4], 0.78 µg/mL; in [5] it was 0.78 µg/mL; in test [6] (setting [26]) it was 50 µg/mL. In addition, the MIC in [7] came out at 1.56 µg/mL; in test [8] (S. aureus 209P NIHJ-JC1, 10^6 CFU/ml, 37° C., 16 hours, read-out: Minimum Inhibitory Concentration (MIC)), 0.2 µg/mL; in [9] (setting [22]), 0.0125 µg/mL; in test [10] (setting [23]) it was 6.25 µg/mL; in [11] (setting [27]) it was 25 µg/mL; in test [12], 3.12 µg/mL. Also, the MIC in test [13] was less than 0.006 µg/mL; in test [14], 1.56 µg/mL; in test [15] (setting [24]), 0.78 µg/mL; in test [16], 3.12 µg/mL; in [17], 0.78 µg/mL; in [18], 0.78 µg/mL. Moreover, the MIC in [19] (16 h, *K. oxytoca GN10650, lactamase-producing strain, read-out: Minimum Inhibitory Concentration (MIC)) came to 25 µg/mL; in [20] it was 3.12 µg/mL.
